Results reported in patent US11795173B1, “Substituted pyridines as PARP1 inhibitors” (Xinthera, Inc., priority 2022, dated 2023).
pEC50, pIC50: −log10 of the molar value.

How the values were obtained:
[1] = test system: MDA-MB-436 (mutated BRCA1) cells; experiment: Cell growth inhibition assay (CellTiter-Glo), MDA-MB-436; type: cell-based; settings: Homo sapiens, MDA-MB-436, 168 h; cell viability, CellTiter Glo 2.0, 7 days
Excerpt: (§1) The objective of this study is to evaluate the effect of compound disclosed herein on cell proliferation through the cell viability assay in DLD-1 BRCA2(−/−) and parental isogenic pair and MDA-MB-436 (mutated BRCA1) cell lines. The CellTiter-Glo (CTG) based cell viability assay is designed to determine the number of viable cells in the culture because of compound effect, by quantifying ATP, which indicates the presence of metabolically active cells.
(§2) DLD-1 BRCA2(−/−) and parental isogenic pair were cultured in RPMI 1640 supplemented with 10% fetal bovine serum (FBS), and MDA-MB-436 cells were cultured in DMEM supplemented with 10% FBS. Both are culture at 37° C. with 5% CO2. Invention compounds were distributed to the 384 well plate (Corning, 3764) using Echo acoustic liquid handler to form a 1:3 serially diluted final concentration with top dose of 10 or 30 μM. The cells were seeded into the plate in the density of 50 cells/well (DLD-1 parental), 200 cells/well (DLD-1 BRCA2−/−), or 500 cells/well (MDA-MB-436). After a short spun, the cells were cultured in a well moisturized incubator at 37° C. with 5% CO2 for 7 days without disturbance. The cell viability was measured by CellTiter Glo 2.0 assay kit (Promega, G9243), and growth inhibition rate was calculated and plotted against final compound concentration, and the data were fitted in Xfit to generate IC50.

[2] = test system: DLD-1 BRCA2(−/−) cells; experiment: Cell growth inhibition assay (CellTiter-Glo), DLD-1 BRCA2(−/−); type: cell-based; settings: Homo sapiens, DLD-1, 168 h; cell viability, CellTiter Glo 2.0, 7 days
Procedure: The objective of this study is to evaluate the effect of compound disclosed herein on cell proliferation through the cell viability assay in DLD-1 BRCA2(−/−) and parental isogenic pair and MDA-MB-436 (mutated BRCA1) cell lines.
as §2, with “Invention compounds were distributed to the 384 well plate (Corning, 3764) using Echo acoustic liquid handler to form a 1:3 serially diluted final concentration with top dose of 10 or 30 μM.” left out

[3] = HLM stability, predicted human hepatic clearance; type: in vitro ADME; settings: well-stirred model, 1 μM, 0.5 mg/mL microsomal protein, NADPH
Procedure: Working stocks of individual test articles were prepared at a concentration of 100 μM by diluting 10 mM stocks prepared in DMSO 100-fold (v:v) into ACN. Thawed hepatic microsomes were suspended in 100 mM potassium phosphate buffer, pH 7.4 to a microsomal protein concentration of 0.562 mg/mL. Diluted microsomes were combined with a solution of 10 mM NADPH, and the mixture was pre-warmed to 37° C. for 8 min. Reactions were initiated by addition of the test article working stocks to achieve a final test article concentration of 1 μM. Final microsomal protein and NADPH concentrations were 0.5 mg/mL and 1 mM, respectively. Incubations containing NADPH were run in duplicate. Test article losses mediated by non-CYP mechanisms were evaluated in a parallel set of incubations run in the absence of NADPH. Incubations lacking NADPH consisted of 1 replicate per test article. Following incubation in a 37° C. water bath, aliquots of individual reactions were quenched with cold ACN containing internal standards at […], 15-, 30-, 60-, 90-, and 120-min. Precipitated protein was pelleted via refrigerated centrifugation. Supernatants were diluted into an equal volume of pure water and mixed well prior to analysis via LC-MS/MS. In vitro intrinsic clearances (CLint) in μL/min/mg were determined for each incubation from calculated in vitro half-lives determined using a standard log-linear regression approach. In vitro CLint values were scaled up using the following physiological scaling factors: 40 mg microsomal protein/g human liver and 25.7 g human liver/kg body weight.

[4] = target: MDR1 (Homo sapiens (Human), UniProt P08183); experiment: In vitro human transporter efflux, MDCKII cells expressing MDR1; type: in vitro ADME; settings: for Papp A→B at 2 h, 10 μM: MDCK-MDR1, pH 7.4, apical-to-basolateral, pH7.4, read-out: MDCK-MDR1 Papp AB; for Papp A→B at 2 h, 10 μM / Papp B→A at 2 h, 10 μM: 2-hour incubation; for Papp B→A at 2 h, 10 μM: MDCK-MDR1, pH 7.4, basolateral-to-apical, pH7.4, read-out: MDCK-MDR1 Papp BA; for efflux ratio at 2 h, 10 μM: MDCK-MDR1, pH 7.4, efflux ratio Papp BA/Papp AB
Procedure: (§3) Madin-Darby canine kidney (MDCKII) cells expressing either MDR1 or BCRP were seeded onto Corning HTS Transwell® 96-well polycarbonate permeable (0.4 μm pore) supports at a density of 545,000 cells/cm^2. Cells were incubated for 4-8 days prior to assay, and monolayer integrity was assessed by measuring transepithelial electrical resistance (TEER). […] The final organic solvent concentration was 0.5% (v/v). Bidirectional (apical-to-basolateral and basolateral-to-apical) flux of the test and reference compounds was determined over a 2-hour incubation at 37° C. and 5% CO2 with a relative humidity of 95%. At the end of the incubation, samples from the apical and basolateral side were taken and then precipitated with acetonitrile containing internal standard. After centrifugation at 3200×g, supernatants were diluted 1:1 (v/v) with water and subjected to analysis via HPLC-MS/MS.
(§4) Apparent permeability (Papp, ×10^−6 cm/s) was calculated for all transport assays using the following equation: […]
(§5) Efflux ratio was determined by calculating the ratio of the Papp in the basolateral-to-apical direction to the Papp in the apical-to-basolateral direction using the following equation: […]

[5] = hHEP stability, predicted human hepatic clearance; type: in vitro ADME; settings: well-stirred model, 0.5×10^6 viable cells/mL
Procedure: Working stocks of individual test articles were prepared at concentrations of 100 μM by diluting 10 mM stocks prepared in DMSO 100-fold (v:v) into ACN/H2O (50/50, v:v). Human cryopreserved hepatocytes were thawed in a 37° C. water bath in <2 min., suspended in thawing media, and then centrifuged at 100×g for 10 min. Thawing media was aspirated, and pelleted hepatocytes were resuspended into incubation media at 1.5×10^6 cells/mL. Cell viability was determined using an Acridine Orange/Propidium Iodine stain, and hepatocytes were further diluted with incubation media to 0.5×10^6 viable cells/mL. Hepatocyte aliquots of 198 μL were added to wells of a 96-well plate, and test article incubations were initiated by the addition of 2 μL of 100 μM working stocks. Plates were incubated at 37° C. in a 5% CO2 atmosphere at 95% relative humidity on an orbital shaker at 300 rpm. Incubations were performed in duplicate. Following incubation, aliquots of individual reactions were terminated by addition of ACN containing internal standards at 0, 30-, 60-, 90-, 120-, and 240-min. Precipitated protein was pelleted via refrigerated centrifugation. Supernatants were diluted into an equal volume of pure water and mixed well prior to analysis via LC-MS/MS. In vitro intrinsic clearances (CLint) in μL/min/10^6 cells were determined for each incubation from calculated in vitro half-lives determined using a standard log-linear regression approach. In vitro CLint values were scaled up using the following physiological scaling factors: 99×10^6 cells/g human liver and 25.7 g human liver/kg body weight.

[6] = test system: DLD-1 parental cells; experiment: Cell growth inhibition assay (CellTiter-Glo), DLD-1 parental; type: cell-based; settings: Homo sapiens, DLD-1, 168 h; cell viability, CellTiter Glo 2.0, 7 days
Excerpt: as §1, §2

[7] = target: BCRP (Homo sapiens (Human), UniProt Q9UNQ0); experiment: In vitro human transporter efflux, MDCKII cells expressing BCRP; type: in vitro ADME; settings: for Papp A→B at 2 h, 10 μM: pH 7.4, apical-to-basolateral, pH7.4, read-out: BCRP Papp AB; for Papp A→B at 2 h, 10 μM / Papp B→A at 2 h, 10 μM: 2-hour incubation; for Papp B→A at 2 h, 10 μM: pH 7.4, basolateral-to-apical, pH7.4, read-out: BCRP Papp BA; for efflux ratio at 2 h, 10 μM: pH 7.4, efflux ratio Papp BA/Papp AB
Procedure: as §3, §4, §5

[8] = target: PARP1 (Homo sapiens (Human), UniProt P09874); experiment: Biochemical fluorescence polarization (FP) assay, PARPi-FL displacement, PARP1; type: binding; settings: 20 nM protein, 3 nM PARPi-FL, 4 h at room temperature
Procedure: (§6) To characterize our compounds, we utilized an assay measuring the displacement of a commercially available fluorescently labeled PARP 1/2 inhibitor (PARPi-FL, Tocris Biosciences, #6461) as exemplified in assays performed in WO2014/064149 and WO2021/013735A1. The assay was performed utilizing the following method: Compounds were dissolved in DMSO an Echo550 liquid handler was utilized to make serial dilations in the desired concentration range in Optiplate-384F plates. 100% DMSO was used for the high (with protein) and low (without protein) control samples. 20 nL of compound or DMSO alone was added to individual assay plate wells. […] The PARPi-FL was then added at a final concentration of 3 nM. The assay plate is centrifuged at 1000 rpm for 1 min and incubated for 4 h at room temperature. […] XLFit (equation 201) is used to calculate a reported IC50 for each compound.

[9] = target: PARP2 (Homo sapiens (Human), UniProt Q9UGN5); experiment: Biochemical fluorescence polarization (FP) assay, PARPi-FL displacement, PARP2; type: binding; settings: 20 nM protein, 3 nM PARPi-FL, 4 h at room temperature
Procedure: as §6

Chain of MDR1 (P08183 whole entry): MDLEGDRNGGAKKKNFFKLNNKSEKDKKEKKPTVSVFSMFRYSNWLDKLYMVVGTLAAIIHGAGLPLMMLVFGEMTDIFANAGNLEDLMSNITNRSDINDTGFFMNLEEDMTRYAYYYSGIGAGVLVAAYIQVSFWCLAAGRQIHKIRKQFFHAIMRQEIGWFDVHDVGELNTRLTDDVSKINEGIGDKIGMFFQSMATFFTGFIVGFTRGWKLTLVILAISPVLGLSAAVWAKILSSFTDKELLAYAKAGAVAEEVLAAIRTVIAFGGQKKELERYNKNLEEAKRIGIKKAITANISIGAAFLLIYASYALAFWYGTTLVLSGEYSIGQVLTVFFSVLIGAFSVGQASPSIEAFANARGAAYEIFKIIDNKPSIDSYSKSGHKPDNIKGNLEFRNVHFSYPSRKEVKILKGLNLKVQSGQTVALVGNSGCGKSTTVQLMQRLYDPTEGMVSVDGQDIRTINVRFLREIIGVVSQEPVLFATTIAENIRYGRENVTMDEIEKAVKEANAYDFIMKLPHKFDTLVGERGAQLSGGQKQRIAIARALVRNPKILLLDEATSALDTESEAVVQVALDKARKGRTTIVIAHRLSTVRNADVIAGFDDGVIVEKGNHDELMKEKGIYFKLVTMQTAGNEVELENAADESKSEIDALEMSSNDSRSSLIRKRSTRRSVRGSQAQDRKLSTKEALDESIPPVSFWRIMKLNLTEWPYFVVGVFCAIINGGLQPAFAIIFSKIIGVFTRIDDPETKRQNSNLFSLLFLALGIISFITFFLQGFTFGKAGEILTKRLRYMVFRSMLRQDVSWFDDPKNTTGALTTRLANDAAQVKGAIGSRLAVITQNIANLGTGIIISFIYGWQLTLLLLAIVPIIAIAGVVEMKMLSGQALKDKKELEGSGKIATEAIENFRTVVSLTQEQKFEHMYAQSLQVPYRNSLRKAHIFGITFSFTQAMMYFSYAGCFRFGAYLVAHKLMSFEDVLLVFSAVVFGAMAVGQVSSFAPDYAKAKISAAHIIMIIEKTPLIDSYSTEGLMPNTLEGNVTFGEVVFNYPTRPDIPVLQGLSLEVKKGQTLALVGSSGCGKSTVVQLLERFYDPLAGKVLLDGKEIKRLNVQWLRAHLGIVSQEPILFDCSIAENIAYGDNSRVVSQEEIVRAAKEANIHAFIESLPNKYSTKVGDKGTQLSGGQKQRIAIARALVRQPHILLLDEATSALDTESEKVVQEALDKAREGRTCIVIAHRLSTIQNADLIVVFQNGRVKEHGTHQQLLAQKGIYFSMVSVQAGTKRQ
Chain of BCRP (Q9UNQ0 whole entry): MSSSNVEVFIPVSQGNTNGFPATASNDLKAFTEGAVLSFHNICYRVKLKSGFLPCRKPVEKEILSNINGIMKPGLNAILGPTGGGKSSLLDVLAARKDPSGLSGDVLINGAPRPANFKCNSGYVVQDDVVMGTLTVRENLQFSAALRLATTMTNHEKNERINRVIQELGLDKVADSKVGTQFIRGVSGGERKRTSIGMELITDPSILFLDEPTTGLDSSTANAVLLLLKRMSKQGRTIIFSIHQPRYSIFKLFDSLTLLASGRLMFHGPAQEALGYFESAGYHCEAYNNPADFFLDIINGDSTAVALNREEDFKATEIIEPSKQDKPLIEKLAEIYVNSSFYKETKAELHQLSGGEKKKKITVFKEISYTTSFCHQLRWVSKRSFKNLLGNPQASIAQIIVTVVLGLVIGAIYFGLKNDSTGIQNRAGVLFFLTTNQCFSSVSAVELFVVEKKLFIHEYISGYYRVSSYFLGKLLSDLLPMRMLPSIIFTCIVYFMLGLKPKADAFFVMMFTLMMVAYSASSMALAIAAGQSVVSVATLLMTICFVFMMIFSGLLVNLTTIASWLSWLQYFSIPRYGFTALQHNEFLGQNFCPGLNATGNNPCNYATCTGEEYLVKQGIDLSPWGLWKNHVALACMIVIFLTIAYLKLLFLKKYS
Chain of PARP2 (Q9UGN5 whole entry): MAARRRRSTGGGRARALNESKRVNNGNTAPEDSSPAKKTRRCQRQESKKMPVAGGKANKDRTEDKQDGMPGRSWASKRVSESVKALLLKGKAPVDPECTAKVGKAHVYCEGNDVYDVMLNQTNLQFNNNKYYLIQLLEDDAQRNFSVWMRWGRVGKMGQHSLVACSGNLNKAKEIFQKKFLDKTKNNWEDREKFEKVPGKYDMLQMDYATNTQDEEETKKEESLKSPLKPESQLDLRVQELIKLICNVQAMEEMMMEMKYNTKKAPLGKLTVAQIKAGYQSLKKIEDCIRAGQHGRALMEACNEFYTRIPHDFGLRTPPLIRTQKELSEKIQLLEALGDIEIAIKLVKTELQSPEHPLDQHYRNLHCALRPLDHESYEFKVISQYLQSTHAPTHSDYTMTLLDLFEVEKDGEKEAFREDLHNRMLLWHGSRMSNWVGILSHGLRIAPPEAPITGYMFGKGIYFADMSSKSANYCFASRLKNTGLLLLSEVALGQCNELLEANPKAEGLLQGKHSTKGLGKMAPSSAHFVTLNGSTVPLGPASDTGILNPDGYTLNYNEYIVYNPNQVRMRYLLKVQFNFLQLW
Chain of PARP1 (P09874 whole entry): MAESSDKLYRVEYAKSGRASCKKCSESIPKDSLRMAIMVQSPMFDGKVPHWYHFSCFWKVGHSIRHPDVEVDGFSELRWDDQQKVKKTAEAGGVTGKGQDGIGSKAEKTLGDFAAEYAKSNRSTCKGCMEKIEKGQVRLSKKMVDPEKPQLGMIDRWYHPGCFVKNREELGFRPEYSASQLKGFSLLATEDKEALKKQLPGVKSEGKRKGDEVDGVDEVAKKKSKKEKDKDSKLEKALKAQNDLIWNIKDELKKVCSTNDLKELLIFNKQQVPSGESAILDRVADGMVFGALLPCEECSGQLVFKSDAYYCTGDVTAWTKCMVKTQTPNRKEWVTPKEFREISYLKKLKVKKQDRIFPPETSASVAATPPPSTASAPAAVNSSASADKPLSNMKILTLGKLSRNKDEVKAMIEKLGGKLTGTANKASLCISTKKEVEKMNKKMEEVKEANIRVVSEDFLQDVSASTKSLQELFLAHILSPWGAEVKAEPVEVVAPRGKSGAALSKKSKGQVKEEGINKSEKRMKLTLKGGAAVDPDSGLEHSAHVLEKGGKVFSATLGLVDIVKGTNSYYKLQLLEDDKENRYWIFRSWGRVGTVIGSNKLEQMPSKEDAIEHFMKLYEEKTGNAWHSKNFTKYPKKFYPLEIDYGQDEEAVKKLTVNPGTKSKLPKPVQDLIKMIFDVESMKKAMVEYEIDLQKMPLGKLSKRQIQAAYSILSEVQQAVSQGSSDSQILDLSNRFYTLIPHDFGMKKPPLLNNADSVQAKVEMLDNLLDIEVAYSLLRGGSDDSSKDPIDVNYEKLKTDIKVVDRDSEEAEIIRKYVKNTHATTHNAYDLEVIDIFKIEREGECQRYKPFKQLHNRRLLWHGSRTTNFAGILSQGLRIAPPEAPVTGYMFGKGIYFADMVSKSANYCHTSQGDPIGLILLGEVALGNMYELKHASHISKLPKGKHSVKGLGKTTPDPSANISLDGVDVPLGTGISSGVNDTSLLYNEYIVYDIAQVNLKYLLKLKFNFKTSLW

| pEC50 [1] | pEC50 [2] | HLM Clh [3] [mL/min/kg] | Papp A→B at 2 h, 10 μM [4] [×10⁻⁶ cm/s] | Papp B→A at 2 h, 10 μM [4] [×10⁻⁶ cm/s] | efflux ratio at 2 h, 10 μM [4] | Papp A→B at 2 h, 10 μM [7] [×10⁻⁶ cm/s] | Papp B→A at 2 h, 10 μM [7] [×10⁻⁶ cm/s] | efflux ratio at 2 h, 10 μM [7] | pIC50 [8] | pIC50 [9] | Compound | HHEP Clh [5] [mL/min/kg] | pEC50 [6] |
| --- | --- | --- | --- | --- | --- | --- | --- | --- | --- | --- | --- | --- | --- |
| 9.40 | 8.80 | 7.2 | 6.6 | 32.3 | 5 | – | – | – | – | – | CNC(=O)c1ccc(N2CCN(Cc3cc(F)c4c5c(c(=O)[nH]c4c3)COC5)CC2)c(F)n1 [Comp. Ex. 3, 6-fluoro-5-(4-((9-fluoro-4-oxo-1,3,4,5-tetrahydrofuro[3,4-c]quinolin-7-yl)methyl)piperazin-1-yl)-N-methylpicolinamide, reference compound] | 7.1 | – |
| 8.54 | 8.39 | – | 15.9 | 29.6 | 1.87 | 21.7 | 20.4 | 0.95 | – | – | CNC(=O)c1ccc(N2CCN(Cc3ccc4c([nH]c(=O)c5ccnn54)c3F)CC2)c(F)n1 [Example 1, 6-fluoro-5-[4-({6-fluoro-4-oxo-5H-pyrazolo[1,5-a]quinoxalin-7-yl}methyl)piperazin-1-yl]-N-methylpyridine-2-carboxamide] | – | < 4.52 |
| 9.15 | 8.77 | 4.2 | 5.7 | 29 | 5.1 | – | – | – | – | – | CNC(=O)c1ccc(N2CCN(Cc3ccc4c5c(c(=O)[nH]c4c3)CCO5)CC2)c(Cl)n1 [Comp. Ex. 2, 6-chloro-N-methyl-5-[4-({4-oxo-2H,3H,5H-furo[3,2-c]quinolin-7-yl}methyl)piperazin-1-yl]pyridine-2-carboxamide, reference compound] | 6.6 | – |
| 8.92 | 8.72 | – | 15.2 | 22.7 | 1.5 | 21.1 | 18.2 | 0.87 | 8.21 | < 4.00 | [2H]C([2H])([2H])NC(=O)c1ccc(N2CCN(Cc3ccc4c([nH]c(=O)c5ccnn54)c3F)CC2)c(F)n1 [Example 18] | – | < 4.52 |
| 8.80 | 8.49 | <4 | 19.4 | 31.4 | – | 26.7 | 24.3 | – | – | – | CNC(=O)c1ccc(N2CCN(Cc3ccc4c5c(c(=O)[nH]c4c3F)CCO5)CC2)c(F)n1 [Example 9, 6-fluoro-5-[4-({6-fluoro-4-oxo-2H,3H,5H-furo[3,2-c]quinolin-7-yl}methyl)piperazin-1-yl]-N-methylpyridine-2-carboxamide] | <3.3 | < 4.52 |
| 9.22 | 8.70 | <4 | 7.5 | 39.8 | – | – | – | – | – | – | CNC(=O)c1ccc(N2CCN(Cc3ccc4c5c(c(=O)[nH]c4c3)CCO5)CC2)c(C)n1 [Comp. Ex. 1, N,6-dimethyl-5-[4-({4-oxo-2H,3H,5H-furo[3,2-c]quinolin-7-yl}methyl)piperazin-1-yl]pyridine-2-carboxamide, reference compound] | <3.3 | – |
